SMILES strings stand for the structures. Entries after “also recorded” stand apart in the source; their conditions may differ. Read-outs that look alike come from different tables or passages of the source.

Test [1] deals with T1, EtCYP112 (Erwinia tracheiphila, UniProt A0A0M2KIP9). In kind it is biochemical. The conditions noted are these: 20 μM substrate, 60 μM NADPH, 12 h at 25 °C.
Test [2] has as its target T1, EtCYP112. The test can be described thus: UV-Vis spectral binding titration of EtCYP112. The settings on record: for shift of the Soret-band from 419 to 391 nm: upon ligand addition.
Test [3] addresses T1, EtCYP112. The settings on record: previously tested as substrates; ref [9]; cited from earlier work.
Setting [4] is: conversion of EtCYP112 to high-spin state upon ligand addition.
Where [5] appears, read: α-band absorption at 570 nm upon ligand addition.

Take `C=C1C[C@]23C[C@H]1CC[C@H]2[C@]1(C)CCC[C@@](C)(C(=O)O)[C@H]1C[C@@H]3O` (single isomer, unassigned) [ent-7α-hydroxy kaurenoic acid]: the “conversion by EtCYP112 (products observed)” value on EtCYP112 [1] is recorded as “no products were observed”. In addition, the “High Spin State” value on EtCYP112 [2] (setting [4]) is 50 – 60%. For the same molecule, the “α-band Absorbtion” value at EtCYP112 [2] (setting [5]) was “decreased”.
`C=C1C[C@]23C[C@H]1CC[C@H]2[C@@]12CCC[C@@](C)(C(=O)O1)[C@H]2[C@@H]3C(=O)O` [GA9]: the “High Spin State” value on EtCYP112 [2] (setting [4]) was less than 5%. The “shift of the Soret-band from 419 to 391 nm” value (shortened to “shift of the Soret-band”) on EtCYP112 [2] is listed as roughly 5%. In addition, the “α-band Absorbtion” value on EtCYP112 [2] (setting [5]) is reported as “without any decrease; also recorded: unchanged”.
`C=C1C[C@]23C[C@H]1CC[C@H]2[C@]1(C)CCC[C@@](C)(C(=O)O)[C@H]1[C@@H]3C=O` [GA12-aldehyde]: the “conversion by EtCYP112 (products observed)” value at EtCYP112 [1] was “transformed into two products”. For the same molecule, the “High Spin State” value on EtCYP112 [2] (setting [4]) is greater than 90%. For the same molecule, the “α-band Absorbtion” value at EtCYP112 [2] (setting [5]) is recorded as “decreased”.
`C=C1C[C@]23C[C@H]1CC[C@H]2[C@]1(C)CCC[C@@](C)(C(=O)O)[C@H]1[C@@H]3C(=O)O` [GA12]: on EtCYP112 [2] (setting [4]), the “High Spin State” value is reported as greater than 90%. For the same molecule, on EtCYP112 [2] (setting [5]), the “α-band Absorbtion” value was “decreased”.
The like results for `C=C1C[C@]23C[C@H]1CC[C@H]2[C@@]12CCC[C@@](C)(C(=O)OC1)[C@H]2[C@@H]3C(=O)O` [GA15 (closed lactone), GA15] were, in that order, greater than 90% and “decreased”.
On to `C=C1C[C@]23C[C@H]1CC[C@H]2[C@]1(CO)CCC[C@@](C)(C(=O)O)[C@H]1[C@@H]3C(=O)O` [GA15 (open lactone), GA15], for which, at EtCYP112 [2], the “High Spin State” value is recorded as greater than 90% and the “α-band Absorbtion” value is on record as “decreased”.
With `C=C1C[C@]23C[C@H]1CC[C@H]2[C@]1(C=O)CCC[C@@](C)(C(=O)O)[C@H]1[C@@H]3C(=O)O` [GA24], the “High Spin State” value on EtCYP112 [2] (setting [4]) is 80 – 90%. Moreover, at EtCYP112 [2] (setting [5]), the “α-band Absorbtion” value is given as “decreased”.
In the case of `C=C1C[C@]23C[C@H]1CC[C@H]2[C@]1(C(=O)O)CCC[C@@](C)(C(=O)O)[C@H]1[C@@H]3C(=O)O` [GA25], the “conversion by EtCYP112” value at EtCYP112 [3] is recorded as “does not react”. Also, at EtCYP112 [2] (setting [4]), the “High Spin State” value is given as 10 – 20%. Also, the “shift of the Soret-band” value at EtCYP112 [2] is on record as 10–20%. Besides, the “α-band Absorbtion” value on EtCYP112 [2] (setting [5]) is “without any decrease; also recorded: unchanged”.
In the case of `C=C1C[C@]23C[C@H]1CC[C@H]2[C@]1(C)CCC[C@@](C)(C(=O)OC)[C@H]1[C@@H]3C(=O)OC` [MeGA12], the “conversion by EtCYP112” value at EtCYP112 [3] is “converted by EtCYP112 to GA9”. The “fold higher Kd than free GA12” value at EtCYP112 [2] (Kd of MeGA12 relative to GA12) came out at 5 fold. In addition, on EtCYP112 [2] (setting [4]), the “High Spin State” value is 50 – 60%. In addition, the “α-band Absorbtion” value on EtCYP112 [2] (setting [5]) is recorded as “decreased”.
On to `C=C1C[C@]23C[C@H]1CC[C@H]2[C@@]12CCC[C@@](C)(C(=O)OC1)[C@H]2[C@@H]3C(=O)OC` [MeGA15], for which the “conversion by EtCYP112” value at EtCYP112 [3] is “converted by EtCYP112 to GA9”. Also, the “fold more tightly bound than the analogous form of free GA15” value at EtCYP112 [2] (MeGA15 (closed δ-lactone) relative to GA15 closed lactone) is “about 6 fold”. The “High Spin State” value at EtCYP112 [2] (setting [4]) was 80 – 90%. Further, at EtCYP112 [2] (setting [5]), the “α-band Absorbtion” value was “decreased”.
Turning to `C=C1C[C@]23C[C@H]1CC[C@H]2[C@]1(C=O)CCC[C@@](C)(C(=O)OC)[C@H]1[C@@H]3C(=O)OC` [MeGA24], the “conversion by EtCYP112” value at EtCYP112 [3] is given as “does not react”. The “High Spin State” value at EtCYP112 [2] (setting [4]) is recorded as 5 – 10%. Moreover, the “shift of the Soret-band” value on EtCYP112 [2] is reported as “only induces a partial shift”. The “α-band Absorbtion” value on EtCYP112 [2] (setting [5]) is “no decrease; also recorded: unchanged”.
On to `C=C1C[C@@]23CC[C@H]4[C@@](C)(CCC[C@@]4(C)C=O)[C@@H]2CC[C@@H]1C3` [ent-kaurenal], for which the “conversion by EtCYP112 (products observed)” value at EtCYP112 [1] was “no products were observed”. For the same molecule, the “High Spin State” value at EtCYP112 [2] (setting [4]) is given as 5 – 10%. Besides, the “α-band Absorbtion” value on EtCYP112 [2] (setting [5]) is “decreased”.
On to `C=C1C[C@@]23CC[C@@H]4C(C)(C)CCC[C@@]4(C)[C@@H]2CC[C@@H]1C3` [ent-kaurene], for which the “conversion by EtCYP112 (products observed)” value on EtCYP112 [1] is listed as “did not serve as substrates”. Besides, on EtCYP112 [2] (setting [4]), the “High Spin State” value is listed as less than 5%. On EtCYP112 [2], the “shift of the Soret-band” value was “only induces a small shift”. Besides, at EtCYP112 [2] (setting [5]), the “α-band Absorbtion” value is listed as “no decrease; also recorded: unchanged”.
For the molecule `C=C1C[C@@]23CC[C@H]4[C@@](C)(CCC[C@@]4(C)C(=O)O)[C@@H]2CC[C@@H]1C3` [ent-kaurenoic acid], the “conversion by EtCYP112 (products observed)” value on EtCYP112 [1] is “no products were observed”. For the same molecule, the “High Spin State” value on EtCYP112 [2] (setting [4]) was 50 – 60%. The “α-band Absorbtion” value at EtCYP112 [2] (setting [5]) was “decreased”.
The like results for `C=C1C[C@@]23CC[C@@H]4[C@](C)(CO)CCC[C@@]4(C)[C@@H]2CC[C@@H]1C3` [ent-kaurenol] were, in that order, “no products were observed”, 20 – 30% and “decreased”.
As to `C=C1C[C@@]23CC[C@H]4[C@@](C)(CCC[C@@]4(C)C(=O)OC)[C@@H]2CC[C@@H]1C3` [methyl-ent-kaurenoate], at EtCYP112 [1], the “conversion by EtCYP112 (products observed)” value is given as “no products were observed”. The “High Spin State” value on EtCYP112 [2] (setting [4]) is 10 – 15%. The “α-band Absorbtion” value at EtCYP112 [2] (setting [5]) is “decreased”.
